Measurements: ChEMBL document CHEMBL1153651, “Synthesis and biology of the rigidified glutamate analogue, trans-2-carboxyazetidine-3-acetic acid (t-CAA)” (Bioorg Med Chem Lett, 1996)
pEC50, pIC50: −log10 of the molar value.

What was measured:
[1] = target: T1, Metabotropic glutamate receptor 6 (Homo sapiens, UniProt O15303); test: Compound was tested for its agonist activity against mGluR 6 receptor in CHO cells.; format: functional, cell-based, Cricetulus griseus
[2] = species: Rattus norvegicus; test: Compound was tested in vitro for binding affinity against calcium chloride dependent glutamate uptake site, using [3H]L-AP4 as the radioligand in rat cortical membranes.; format: functional
[3] = target: T1, Metabotropic glutamate receptor 6; test: Compound was tested for its antagonist activity against mGluR 6 receptor in CHO cells.; format: functional, cell-based, Cricetulus griseus
[4] = target: T2, Metabotropic glutamate receptor 2 (Homo sapiens, UniProt Q14416); test: Compound was tested for its agonist activity against mGluR 2 receptor in CHO cells; format: functional, cell-based; conditions: Cricetulus griseus
Target sequence in this assay (Q14416 19-872 limits assumed): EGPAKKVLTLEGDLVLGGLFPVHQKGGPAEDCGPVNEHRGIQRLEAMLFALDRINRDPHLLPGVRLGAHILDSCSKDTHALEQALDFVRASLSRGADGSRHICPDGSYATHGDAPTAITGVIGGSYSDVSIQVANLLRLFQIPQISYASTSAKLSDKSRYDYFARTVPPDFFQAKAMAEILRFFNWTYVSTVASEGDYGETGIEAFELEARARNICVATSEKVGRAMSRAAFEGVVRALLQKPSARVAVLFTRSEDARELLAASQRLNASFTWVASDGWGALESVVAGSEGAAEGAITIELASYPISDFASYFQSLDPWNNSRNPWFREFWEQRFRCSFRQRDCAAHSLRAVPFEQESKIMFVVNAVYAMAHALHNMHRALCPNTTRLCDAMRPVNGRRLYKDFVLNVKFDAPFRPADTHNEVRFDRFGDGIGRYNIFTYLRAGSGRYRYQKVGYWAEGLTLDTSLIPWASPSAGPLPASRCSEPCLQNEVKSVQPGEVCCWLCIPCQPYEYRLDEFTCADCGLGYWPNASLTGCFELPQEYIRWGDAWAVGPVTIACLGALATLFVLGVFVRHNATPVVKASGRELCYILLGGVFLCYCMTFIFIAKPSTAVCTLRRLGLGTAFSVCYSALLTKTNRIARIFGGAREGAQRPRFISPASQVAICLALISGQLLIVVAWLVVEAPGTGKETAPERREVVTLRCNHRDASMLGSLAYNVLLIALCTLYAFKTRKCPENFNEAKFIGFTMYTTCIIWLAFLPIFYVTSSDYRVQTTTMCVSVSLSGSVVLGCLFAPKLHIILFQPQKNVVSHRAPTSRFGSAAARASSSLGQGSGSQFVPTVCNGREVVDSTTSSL

[5] = target: Glutamate receptor ionotropic, kainate 3 (Rattus norvegicus, UniProt P42264); test: Compound was tested in vitro for binding affinity against Ionotropic glutamate receptor kainate using [3H]kainate as the radioligand.
[6] = target: Glutamate receptor 1 (Rattus norvegicus, UniProt P19490); test: Compound was tested in vitro for binding affinity against Ionotropic glutamate receptor AMPA, using [3H]TCP as the radioligand.
[7] = target: Metabotropic glutamate receptor 1 (Homo sapiens, UniProt Q13255); test: Compound was tested for its agonist activity against mGluR1a receptor in CHO cells.; format: functional, cell-based, Cricetulus griseus
[8] = target: T3, Metabotropic glutamate receptor 5 (Homo sapiens, UniProt P41594); test: Compound was tested for its agonist activity against mGluR 5a receptor in CHO cells.; format: functional, cell-based, Cricetulus griseus
Target sequence in this assay (P41594 whole entry): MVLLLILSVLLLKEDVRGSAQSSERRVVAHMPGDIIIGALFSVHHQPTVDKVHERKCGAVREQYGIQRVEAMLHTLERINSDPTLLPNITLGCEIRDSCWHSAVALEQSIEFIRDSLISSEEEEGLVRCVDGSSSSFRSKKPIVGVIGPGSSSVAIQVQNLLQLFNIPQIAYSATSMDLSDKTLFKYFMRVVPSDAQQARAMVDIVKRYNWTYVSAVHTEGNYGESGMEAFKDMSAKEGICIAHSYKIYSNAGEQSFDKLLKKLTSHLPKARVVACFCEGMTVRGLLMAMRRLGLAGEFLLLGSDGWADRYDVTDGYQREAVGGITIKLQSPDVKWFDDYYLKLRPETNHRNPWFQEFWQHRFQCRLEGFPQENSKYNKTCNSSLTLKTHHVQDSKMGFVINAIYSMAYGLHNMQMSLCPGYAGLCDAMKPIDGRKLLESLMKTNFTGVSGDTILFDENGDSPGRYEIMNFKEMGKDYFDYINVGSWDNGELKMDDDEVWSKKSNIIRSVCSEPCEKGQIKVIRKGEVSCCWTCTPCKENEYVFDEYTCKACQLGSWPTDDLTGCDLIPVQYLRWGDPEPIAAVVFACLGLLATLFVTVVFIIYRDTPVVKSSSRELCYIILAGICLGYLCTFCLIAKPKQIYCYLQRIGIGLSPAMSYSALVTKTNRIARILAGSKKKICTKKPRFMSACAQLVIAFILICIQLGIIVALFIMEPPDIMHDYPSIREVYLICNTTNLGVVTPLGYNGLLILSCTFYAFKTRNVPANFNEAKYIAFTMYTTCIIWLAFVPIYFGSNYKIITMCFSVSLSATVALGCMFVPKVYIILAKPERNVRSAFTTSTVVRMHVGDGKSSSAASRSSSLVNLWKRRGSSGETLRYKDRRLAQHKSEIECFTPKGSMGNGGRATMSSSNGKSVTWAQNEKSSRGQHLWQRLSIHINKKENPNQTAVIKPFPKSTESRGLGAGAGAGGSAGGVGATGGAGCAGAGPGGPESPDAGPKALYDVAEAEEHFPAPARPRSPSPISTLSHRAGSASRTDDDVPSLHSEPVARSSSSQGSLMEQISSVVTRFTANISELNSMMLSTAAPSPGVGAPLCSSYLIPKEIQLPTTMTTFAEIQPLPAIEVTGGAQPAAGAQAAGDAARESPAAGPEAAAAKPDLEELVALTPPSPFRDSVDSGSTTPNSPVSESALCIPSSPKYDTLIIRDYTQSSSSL

[9] = target: Metabotropic glutamate receptor 4 (Rattus norvegicus, UniProt P31423); test: Compound was tested in vitro for binding affinity against mGluR4a metabotropic glutamate receptor, using [3H]L-AP4 as the radioligand.
[10] = species: Rattus norvegicus; test: Compound was tested in vitro for binding affinity against sodium dependent [3H]glu-uptake into rat cortical synaptosomes, using [3H]-glutamate as the radioligand.; format: functional; conditions: Brain
[11] = target: T2, Metabotropic glutamate receptor 2; test: Compound was tested for its antagonist activity against mGluR 2 receptor in CHO cells.; format: functional, cell-based, Cricetulus griseus
Target sequence in this assay (Q14416 whole entry): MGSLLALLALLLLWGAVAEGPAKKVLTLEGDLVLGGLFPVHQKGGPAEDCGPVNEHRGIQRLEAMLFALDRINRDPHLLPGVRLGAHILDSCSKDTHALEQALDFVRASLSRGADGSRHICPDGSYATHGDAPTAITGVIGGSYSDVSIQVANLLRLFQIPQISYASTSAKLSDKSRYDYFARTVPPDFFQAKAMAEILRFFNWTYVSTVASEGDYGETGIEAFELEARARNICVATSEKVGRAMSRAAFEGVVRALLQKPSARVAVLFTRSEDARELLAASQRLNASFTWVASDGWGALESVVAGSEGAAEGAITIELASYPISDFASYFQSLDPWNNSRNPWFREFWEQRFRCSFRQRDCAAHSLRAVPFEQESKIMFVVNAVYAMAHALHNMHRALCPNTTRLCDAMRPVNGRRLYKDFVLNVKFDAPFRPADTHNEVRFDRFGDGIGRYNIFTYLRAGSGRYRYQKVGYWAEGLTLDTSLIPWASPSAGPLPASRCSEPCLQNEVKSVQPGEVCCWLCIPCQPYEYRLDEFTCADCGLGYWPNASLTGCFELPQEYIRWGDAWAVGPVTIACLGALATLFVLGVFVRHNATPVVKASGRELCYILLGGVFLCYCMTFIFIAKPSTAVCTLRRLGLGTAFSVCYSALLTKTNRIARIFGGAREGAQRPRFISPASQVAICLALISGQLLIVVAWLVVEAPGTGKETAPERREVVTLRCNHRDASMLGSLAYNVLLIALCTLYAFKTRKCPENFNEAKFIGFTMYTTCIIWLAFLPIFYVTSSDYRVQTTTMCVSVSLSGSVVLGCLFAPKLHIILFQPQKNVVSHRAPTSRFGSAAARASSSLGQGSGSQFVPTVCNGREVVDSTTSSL

[12] = target: Metabotropic glutamate receptor 1 (Rattus norvegicus, UniProt P23385); test: Compound was tested in vitro for binding affinity against mGluR1a metabotropic glutamate receptor, using [3H]glutamate as the radioligand.
[13] = target: T1, Metabotropic glutamate receptor 6; test: Compound was tested for its agonist activity against mGluR 6 receptor in CHO cells; format: functional, cell-based; conditions: Cricetulus griseus
[14] = target: T3, Metabotropic glutamate receptor 5; test: Compound was tested for its agonist activity against mGluR 5a receptor in CHO cells; format: functional, cell-based; conditions: Cricetulus griseus
[15] = target: T2, Metabotropic glutamate receptor 2; test: Compound was tested for its agonist activity against mGluR 2 receptor in CHO cells.; format: functional, cell-based, Cricetulus griseus
Target sequence in this assay (Q14416 whole entry): as above

[16] = target: Glutamate NMDA receptor; test: Compound was tested in vitro for binding affinity against NMDA receptor, using [3H]CPP as the radioligand in rat cerebral cortical membranes.; format: cell membranes
[17] = target: Glutamate receptor ionotropic, AMPA (Rattus norvegicus, UniProt P19490+P19491+P19492+P19493); test: Compound was tested in vitro for binding affinity against Ionotropic glutamate receptor AMPA, using [3H]AMPA as the radioligand in rat cerebral cortical membranes.; format: cell membranes

T1 sequence (O15303 whole entry): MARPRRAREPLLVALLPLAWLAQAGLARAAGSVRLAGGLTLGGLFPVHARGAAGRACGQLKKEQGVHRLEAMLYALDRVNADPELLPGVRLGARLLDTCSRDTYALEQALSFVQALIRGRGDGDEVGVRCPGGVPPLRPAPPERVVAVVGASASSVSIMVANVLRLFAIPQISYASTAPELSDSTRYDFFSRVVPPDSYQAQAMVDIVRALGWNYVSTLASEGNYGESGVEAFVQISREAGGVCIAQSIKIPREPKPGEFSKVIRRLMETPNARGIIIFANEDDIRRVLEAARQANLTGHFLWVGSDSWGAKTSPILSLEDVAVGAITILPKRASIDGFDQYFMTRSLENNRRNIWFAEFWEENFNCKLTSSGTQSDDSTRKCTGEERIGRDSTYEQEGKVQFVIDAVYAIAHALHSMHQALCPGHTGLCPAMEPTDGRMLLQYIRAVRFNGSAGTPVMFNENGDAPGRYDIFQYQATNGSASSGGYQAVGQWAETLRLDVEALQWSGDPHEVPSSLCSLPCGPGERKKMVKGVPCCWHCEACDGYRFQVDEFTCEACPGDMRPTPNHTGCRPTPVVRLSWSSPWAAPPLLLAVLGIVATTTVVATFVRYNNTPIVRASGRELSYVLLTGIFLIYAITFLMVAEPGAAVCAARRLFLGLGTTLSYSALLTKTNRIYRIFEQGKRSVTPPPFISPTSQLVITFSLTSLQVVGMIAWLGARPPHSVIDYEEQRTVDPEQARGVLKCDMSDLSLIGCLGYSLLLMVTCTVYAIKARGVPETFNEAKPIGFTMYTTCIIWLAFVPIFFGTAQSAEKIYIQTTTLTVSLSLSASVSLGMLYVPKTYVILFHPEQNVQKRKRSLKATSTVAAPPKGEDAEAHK
Chain of Metabotropic glutamate receptor 1 (Homo sapiens, UniProt Q13255) (Q13255 whole entry): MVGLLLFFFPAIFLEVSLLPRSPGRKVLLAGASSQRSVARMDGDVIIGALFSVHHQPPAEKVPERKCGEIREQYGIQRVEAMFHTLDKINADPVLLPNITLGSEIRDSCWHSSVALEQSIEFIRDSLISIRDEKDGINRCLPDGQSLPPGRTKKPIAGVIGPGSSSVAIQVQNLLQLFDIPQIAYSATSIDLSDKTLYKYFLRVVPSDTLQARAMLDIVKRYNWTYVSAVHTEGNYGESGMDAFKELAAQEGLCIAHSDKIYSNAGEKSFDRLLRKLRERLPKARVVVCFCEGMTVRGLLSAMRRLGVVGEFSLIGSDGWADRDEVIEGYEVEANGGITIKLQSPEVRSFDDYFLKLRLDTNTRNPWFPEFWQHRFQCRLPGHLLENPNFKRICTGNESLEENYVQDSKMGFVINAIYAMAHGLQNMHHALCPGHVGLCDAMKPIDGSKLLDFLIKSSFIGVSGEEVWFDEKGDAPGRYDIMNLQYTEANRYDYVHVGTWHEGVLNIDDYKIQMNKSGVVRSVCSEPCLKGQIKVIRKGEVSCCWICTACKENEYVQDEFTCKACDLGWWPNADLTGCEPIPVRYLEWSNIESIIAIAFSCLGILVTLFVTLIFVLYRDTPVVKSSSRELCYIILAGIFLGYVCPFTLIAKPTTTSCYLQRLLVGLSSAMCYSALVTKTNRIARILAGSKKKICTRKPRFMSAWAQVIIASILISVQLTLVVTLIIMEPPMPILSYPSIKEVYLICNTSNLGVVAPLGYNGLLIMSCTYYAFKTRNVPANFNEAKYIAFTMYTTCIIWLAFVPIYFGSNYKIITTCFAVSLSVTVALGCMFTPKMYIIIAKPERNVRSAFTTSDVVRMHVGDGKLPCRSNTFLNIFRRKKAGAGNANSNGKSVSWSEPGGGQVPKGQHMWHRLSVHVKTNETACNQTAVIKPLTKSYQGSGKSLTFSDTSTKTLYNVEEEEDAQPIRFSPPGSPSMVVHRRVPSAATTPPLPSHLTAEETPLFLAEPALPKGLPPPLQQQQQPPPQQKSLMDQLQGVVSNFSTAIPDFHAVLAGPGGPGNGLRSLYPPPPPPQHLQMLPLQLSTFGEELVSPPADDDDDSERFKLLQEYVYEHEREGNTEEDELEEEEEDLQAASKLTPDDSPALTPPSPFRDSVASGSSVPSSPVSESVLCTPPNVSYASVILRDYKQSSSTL

**Q.** O=C(O)C[C@H]1CN[C@@H]1C(=O)O was tested. Which pIC50 [1] did it give?
**A.** < 3.52

**Q.** And the pIC50 [2]?
**A.** 4.48

**Q.** And the pIC50 [3]?
**A.** < 3.52

**Q.** What about the Max response [4] of the same molecule?
**A.** 0%

**Q.** And the inhibition ([4]; concentration not given here)?
**A.** 40%

**Q.** And the pIC50 [5]?
**A.** 6.15

**Q.** And the pIC50 [6]?
**A.** < 3.18

**Q.** And the pEC50 [7]?
**A.** 3.68

**Q.** And the pEC50 [8]?
**A.** 3.98

**Q.** And the pIC50 [9]?
**A.** 3.50

**Q.** And the pIC50 [10]?
**A.** 5.30

**Q.** What about the pIC50 [11] of the same molecule?
**A.** < 3.22

**Q.** What about the pIC50 [12] of the same molecule?
**A.** 4.92

**Q.** What about the Max response [13] of the same molecule?
**A.** 17%

**Q.** And the inhibition ([13]; concentration not given here)?
**A.** 0%

**Q.** What about the Max response [14] of the same molecule?
**A.** 95%

**Q.** And the pEC50 [15]?
**A.** < 3.22

**Q.** What about the pIC50 [16] of the same molecule?
**A.** 4.31

**Q.** What about the pIC50 [17] of the same molecule?
**A.** 4.89
